The source made the active and inactive calls.
What was measured:
[1] = decrease of insulin promoter-GFP reporter – imaging, high-content screening, mouse beta cells (AID 1628); format: functional; details: MIN6
[2] = MIN6 cell viability loss – mouse insulinoma, cytotoxicity control, dose response (AID 2122); format: functional;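 further: confirmatory high-throughput counterscreen run to flag cytotoxic compounds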
[3] = molecular target: UDP-galactopyranose mutase (Mycobacterium tuberculosis, UniProt P9WIQ1); assay: Inhibitors of Mycobacterium tuberculosis UDP-galactopyranose mutase (UGM) enzyme Measured in Biochemical System Using Plate Reader - 2105-02_Inhibitor_Dose_CherryPick_Activity. [Related pubchem assays (depositor defined):AID504439]
[4] = molecular target: Cytochrome P450 2D6 (Homo sapiens, UniProt P10635);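 further: CYP2D6 member of a cytochrome P450 panel assay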
[5] = molecular target: T1, Intestinal-type alkaline phosphatase (Mus musculus, UniProt P24822); assay: PubChem AID 488875; format: functional
[6] = molecular target: T2, Intestinal-type alkaline phosphatase (Homo sapiens, UniProt P09923); assay: human intestinal alkaline phosphatase activators, dose response, biochemical, luminescence, uHTS hits (AID 463120); format: functional
[7] = molecular target: T2, Intestinal-type alkaline phosphatase; assay: activation of human intestinal alkaline phosphatase – biochemical, luminescent, uHTS hits, set 2, dose response (AID 488817); format: functional;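 further: potency of activators that raise enzyme activity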
[8] = molecular target: T3, Alkaline phosphatase, tissue-nonspecific isozyme (Homo sapiens, UniProt P05186); assay: activation of tissue-nonspecific alkaline phosphatase – biochemical, TNAP isozyme, human IAP uHTS hits, selectivity assay for human IAP activator project, dose response (AID 488886); format: functional;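 further: potency of compounds raising TNAP activity as a selectivity check on IAP activators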
T3 sequence (P05186 whole entry): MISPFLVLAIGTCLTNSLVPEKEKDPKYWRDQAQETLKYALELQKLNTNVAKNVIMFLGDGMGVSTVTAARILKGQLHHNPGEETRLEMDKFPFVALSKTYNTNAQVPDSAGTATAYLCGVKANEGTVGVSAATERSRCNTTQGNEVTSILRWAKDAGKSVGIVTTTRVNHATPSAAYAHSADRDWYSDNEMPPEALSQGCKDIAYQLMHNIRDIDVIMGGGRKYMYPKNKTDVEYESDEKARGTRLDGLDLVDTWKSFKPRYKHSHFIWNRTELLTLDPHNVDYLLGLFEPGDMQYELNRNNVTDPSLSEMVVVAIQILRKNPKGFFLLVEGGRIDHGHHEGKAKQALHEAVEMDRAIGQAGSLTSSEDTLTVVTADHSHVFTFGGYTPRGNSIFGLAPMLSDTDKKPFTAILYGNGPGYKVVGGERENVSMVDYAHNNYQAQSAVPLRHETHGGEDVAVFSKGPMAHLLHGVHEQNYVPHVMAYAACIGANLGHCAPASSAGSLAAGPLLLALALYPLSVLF

[9] = molecular target: Envelope glycoprotein gp160 (Human immunodeficiency virus 1, UniProt Q6QLK5); assay: cell-free HIV fusion peptide-binding blockers – biochemical, uHTS, fluorescence dequenching, […] (AID 1986)
[10] = molecular target: T4, Apoptotic protease-activating factor 1 (Homo sapiens, UniProt O14727); assay: activation of Apaf-1 mediated apoptosis – fluorescent, uHTS hits, dose response (AID 588554); format: functional
T4 sequence (O14727 whole entry): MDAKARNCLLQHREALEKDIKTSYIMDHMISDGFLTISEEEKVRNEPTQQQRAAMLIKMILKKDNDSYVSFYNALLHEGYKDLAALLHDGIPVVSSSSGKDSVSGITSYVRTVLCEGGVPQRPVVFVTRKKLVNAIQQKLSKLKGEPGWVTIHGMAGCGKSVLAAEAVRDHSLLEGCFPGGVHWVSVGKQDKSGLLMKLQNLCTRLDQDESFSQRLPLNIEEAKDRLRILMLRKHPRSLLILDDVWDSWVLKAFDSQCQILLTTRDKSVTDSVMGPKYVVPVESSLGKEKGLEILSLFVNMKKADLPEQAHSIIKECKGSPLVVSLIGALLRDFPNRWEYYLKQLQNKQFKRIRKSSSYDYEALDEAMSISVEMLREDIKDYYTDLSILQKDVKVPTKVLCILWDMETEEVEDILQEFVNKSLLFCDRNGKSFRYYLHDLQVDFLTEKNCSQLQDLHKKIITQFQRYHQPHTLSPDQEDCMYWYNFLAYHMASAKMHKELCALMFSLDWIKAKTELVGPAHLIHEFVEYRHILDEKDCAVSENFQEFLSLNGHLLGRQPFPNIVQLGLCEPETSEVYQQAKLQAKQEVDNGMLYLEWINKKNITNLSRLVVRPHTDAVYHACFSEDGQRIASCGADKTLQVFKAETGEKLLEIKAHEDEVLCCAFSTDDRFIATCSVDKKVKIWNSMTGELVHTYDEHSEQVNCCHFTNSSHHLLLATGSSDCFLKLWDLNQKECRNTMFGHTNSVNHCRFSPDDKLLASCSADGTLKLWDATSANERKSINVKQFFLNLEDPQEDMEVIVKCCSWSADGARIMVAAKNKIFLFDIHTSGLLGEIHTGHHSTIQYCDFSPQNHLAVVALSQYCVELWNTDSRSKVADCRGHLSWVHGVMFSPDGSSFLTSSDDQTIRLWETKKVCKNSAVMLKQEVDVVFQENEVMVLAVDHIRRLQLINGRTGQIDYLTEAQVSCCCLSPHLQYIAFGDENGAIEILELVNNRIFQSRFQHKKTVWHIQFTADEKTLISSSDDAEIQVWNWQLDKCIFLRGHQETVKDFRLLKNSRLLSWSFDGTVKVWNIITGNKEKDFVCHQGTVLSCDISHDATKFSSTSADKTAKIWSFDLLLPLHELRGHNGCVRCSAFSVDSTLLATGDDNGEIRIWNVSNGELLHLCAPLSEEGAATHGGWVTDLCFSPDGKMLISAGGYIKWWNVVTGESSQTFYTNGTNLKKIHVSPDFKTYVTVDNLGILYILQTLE

[11] = molecular target: Tumor necrosis factor (Homo sapiens, UniProt P01375); assay: analog potency on TNFa NF-kB signaling – cell-based, revised, SAR follow-up (AID 2337); format: functional
[12] = molecular target: Nucleotide-binding oligomerization domain-containing protein 1 (Homo sapiens, UniProt Q9Y239); assay: blockers of NOD1 pathway activity – revised, SAR follow-up (AID 2333); format: functional
[13] = test system: HEK293; assay: cells; details: Homo sapiens;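 further: cells exposed to compound for 14 hours overnight before viability readout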
[14] = molecular target: Cytochrome P450 2C19 (Homo sapiens, UniProt P33261); assay: Cytochrome panel assay with activity outcomes. Panel member name: p450-cyp2c19 Compounds with AC50 equal or less than 10 uM are considered active; format: functional; details: read-out: AC50
[15] = molecular target: T5, Cytochrome P450 2C9 (Homo sapiens, UniProt P11712)
[16] = molecular target: T6, Cytochrome P450 1A2 (Homo sapiens, UniProt P05177);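 further: PubChem cytochrome P450 panel assay, CYP1A2 panel member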
T6 sequence (P05177 whole entry): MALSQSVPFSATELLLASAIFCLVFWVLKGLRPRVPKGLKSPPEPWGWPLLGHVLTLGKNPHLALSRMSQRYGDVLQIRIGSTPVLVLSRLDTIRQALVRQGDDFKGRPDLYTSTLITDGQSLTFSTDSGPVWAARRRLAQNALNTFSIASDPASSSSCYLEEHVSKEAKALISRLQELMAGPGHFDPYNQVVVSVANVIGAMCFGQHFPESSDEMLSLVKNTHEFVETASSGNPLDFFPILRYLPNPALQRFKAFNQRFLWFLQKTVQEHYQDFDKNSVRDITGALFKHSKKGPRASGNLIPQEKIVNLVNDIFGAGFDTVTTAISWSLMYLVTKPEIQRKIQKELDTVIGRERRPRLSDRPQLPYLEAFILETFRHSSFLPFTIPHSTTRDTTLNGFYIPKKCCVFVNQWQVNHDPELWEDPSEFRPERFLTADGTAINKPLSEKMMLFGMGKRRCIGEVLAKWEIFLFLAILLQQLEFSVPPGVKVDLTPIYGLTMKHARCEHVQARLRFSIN

[17] = molecular target: T5, Cytochrome P450 2C9; remark: listed apart in the source
[18] = molecular target: T7, Aminopeptidase N (Plasmodium falciparum FcB1/Columbia, UniProt O96935); assay: malaria alanyl aminopeptidase activity blockers – biochemical, fluorogenic H-Leu-NHMec substrate, 1536-well (AID 1445); design: species or system Plasmodium falciparum 3D7, 3D7
T7 sequence (O96935 whole entry): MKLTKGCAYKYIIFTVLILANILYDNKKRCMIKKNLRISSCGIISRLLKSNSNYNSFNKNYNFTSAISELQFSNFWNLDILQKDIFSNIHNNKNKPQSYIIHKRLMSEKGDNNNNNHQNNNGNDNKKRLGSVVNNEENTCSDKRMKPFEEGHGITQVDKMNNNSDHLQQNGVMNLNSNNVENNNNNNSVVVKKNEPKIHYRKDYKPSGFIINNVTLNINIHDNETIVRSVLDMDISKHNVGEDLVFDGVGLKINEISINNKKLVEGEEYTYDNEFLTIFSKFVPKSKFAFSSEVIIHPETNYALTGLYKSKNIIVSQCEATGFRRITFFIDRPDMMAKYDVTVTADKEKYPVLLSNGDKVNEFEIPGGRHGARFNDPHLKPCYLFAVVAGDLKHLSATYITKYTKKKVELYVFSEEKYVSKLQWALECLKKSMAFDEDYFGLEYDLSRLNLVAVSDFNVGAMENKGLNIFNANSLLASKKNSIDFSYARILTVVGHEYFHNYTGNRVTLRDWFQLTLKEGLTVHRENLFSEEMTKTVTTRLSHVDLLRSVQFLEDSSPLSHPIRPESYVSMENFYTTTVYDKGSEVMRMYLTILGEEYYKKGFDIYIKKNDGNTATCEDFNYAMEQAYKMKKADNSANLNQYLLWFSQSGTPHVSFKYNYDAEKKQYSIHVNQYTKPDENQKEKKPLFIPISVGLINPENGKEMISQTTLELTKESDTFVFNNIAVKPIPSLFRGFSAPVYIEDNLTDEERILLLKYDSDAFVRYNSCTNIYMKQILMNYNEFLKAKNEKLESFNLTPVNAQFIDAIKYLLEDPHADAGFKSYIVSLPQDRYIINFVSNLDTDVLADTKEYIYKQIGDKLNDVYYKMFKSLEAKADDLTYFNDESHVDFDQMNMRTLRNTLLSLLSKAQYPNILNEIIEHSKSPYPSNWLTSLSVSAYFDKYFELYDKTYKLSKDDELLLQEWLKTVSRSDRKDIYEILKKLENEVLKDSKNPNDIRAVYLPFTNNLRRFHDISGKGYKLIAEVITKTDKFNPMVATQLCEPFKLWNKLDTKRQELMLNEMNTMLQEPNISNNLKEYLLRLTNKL

[19] = molecular target: Induced myeloid leukemia cell differentiation protein Mcl-1 (Homo sapiens, UniProt Q07820); assay: blockers of MCL1 binding to BIM peptide – biochemical, fluorescence polarization, BIM-BH3 peptide, 1536-well, dose response (AID 2217)
[20] = molecular target: Bcl-2-like protein 1 (Homo sapiens, UniProt Q07817); assay: blockers of BCLXL peptide binding – biochemical, fluorescence polarization, 1536-well, selectivity assay for MCL1 inhibitor project, dose response (AID 2218)
[21] = molecular target: T1, Intestinal-type alkaline phosphatase; assay: PubChem AID 488785; format: functional
[22] = molecular target: T3, Alkaline phosphatase, tissue-nonspecific isozyme; assay: TNAP enzyme inhibition by screening hits, dose response, selectivity assay for mouse IAP inhibitor project, biochemical, human TNAP, uHTS hits (AID 488906); format: functional
[23] = molecular target: T2, Intestinal-type alkaline phosphatase; assay: inhibition of human intestinal alkaline phosphatase – biochemical, dose response (AID 488876); format: functional
[24] = suppression of NO production in INS-1E cells – cell-based, Griess absorbance, dry powder, set 3, dose response (AID 488870); format: functional; details: Rattus norvegicus
[25] = A cytotoxicity screen of small molecule inhibitors of the PhoP region in Salmonella typhi identified in the primary screen. [Related pubchem assays: 1850, 1864, 1985 ]; format: functional
[26] = restored growth of temperature-sensitive Burl-1 yeast – whole organism, S. cerevisiae, Burl-1 ts mutant, luminescence, counter-screen for SUMOylation pathway inhibitor project, dose response (AID 463199); format: functional

T2 sequence (P09923 whole entry): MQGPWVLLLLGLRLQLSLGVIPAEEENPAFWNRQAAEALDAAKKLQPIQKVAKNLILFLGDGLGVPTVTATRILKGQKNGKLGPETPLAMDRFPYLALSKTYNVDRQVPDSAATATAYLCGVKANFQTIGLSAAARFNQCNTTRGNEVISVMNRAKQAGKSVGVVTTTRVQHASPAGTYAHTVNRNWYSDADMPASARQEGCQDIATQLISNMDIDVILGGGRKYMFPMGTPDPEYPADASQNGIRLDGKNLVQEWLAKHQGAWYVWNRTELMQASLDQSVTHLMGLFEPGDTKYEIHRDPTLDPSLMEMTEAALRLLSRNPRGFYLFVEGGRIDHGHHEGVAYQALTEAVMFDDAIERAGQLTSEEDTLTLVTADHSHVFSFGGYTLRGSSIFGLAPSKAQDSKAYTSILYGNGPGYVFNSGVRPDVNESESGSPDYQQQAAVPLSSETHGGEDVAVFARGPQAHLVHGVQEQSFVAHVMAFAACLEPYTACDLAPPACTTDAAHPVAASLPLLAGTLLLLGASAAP
T1 sequence (P24822 whole entry): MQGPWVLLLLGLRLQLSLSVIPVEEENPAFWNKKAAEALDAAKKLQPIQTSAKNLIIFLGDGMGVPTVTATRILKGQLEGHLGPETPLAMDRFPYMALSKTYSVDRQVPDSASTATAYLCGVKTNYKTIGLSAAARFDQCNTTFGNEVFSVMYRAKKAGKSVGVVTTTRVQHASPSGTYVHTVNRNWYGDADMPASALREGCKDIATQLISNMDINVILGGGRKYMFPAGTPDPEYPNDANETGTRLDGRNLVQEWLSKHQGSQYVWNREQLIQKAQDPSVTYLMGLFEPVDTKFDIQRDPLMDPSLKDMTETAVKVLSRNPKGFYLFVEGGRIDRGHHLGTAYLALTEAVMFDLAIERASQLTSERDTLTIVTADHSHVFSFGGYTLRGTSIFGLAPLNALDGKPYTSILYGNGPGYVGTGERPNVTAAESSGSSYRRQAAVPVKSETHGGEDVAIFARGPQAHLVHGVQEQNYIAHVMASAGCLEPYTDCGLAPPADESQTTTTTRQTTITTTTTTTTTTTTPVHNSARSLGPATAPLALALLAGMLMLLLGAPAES
T5 sequence (P11712 whole entry): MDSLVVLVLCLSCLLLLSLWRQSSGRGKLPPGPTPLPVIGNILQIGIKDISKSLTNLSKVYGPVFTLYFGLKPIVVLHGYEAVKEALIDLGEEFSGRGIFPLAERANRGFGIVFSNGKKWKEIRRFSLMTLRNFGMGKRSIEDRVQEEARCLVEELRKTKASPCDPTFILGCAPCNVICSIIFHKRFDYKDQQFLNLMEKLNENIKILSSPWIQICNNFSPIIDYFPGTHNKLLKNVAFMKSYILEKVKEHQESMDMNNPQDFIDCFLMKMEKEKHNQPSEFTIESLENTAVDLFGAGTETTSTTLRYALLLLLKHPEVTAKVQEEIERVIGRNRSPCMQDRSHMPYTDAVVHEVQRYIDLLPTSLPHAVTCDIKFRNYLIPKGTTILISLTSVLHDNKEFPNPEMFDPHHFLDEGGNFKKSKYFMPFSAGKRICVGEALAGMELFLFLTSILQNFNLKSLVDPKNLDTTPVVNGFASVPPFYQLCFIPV
Envelope glycoprotein gp160, sequence (Q6QLK5 whole entry, the tested form may be a part): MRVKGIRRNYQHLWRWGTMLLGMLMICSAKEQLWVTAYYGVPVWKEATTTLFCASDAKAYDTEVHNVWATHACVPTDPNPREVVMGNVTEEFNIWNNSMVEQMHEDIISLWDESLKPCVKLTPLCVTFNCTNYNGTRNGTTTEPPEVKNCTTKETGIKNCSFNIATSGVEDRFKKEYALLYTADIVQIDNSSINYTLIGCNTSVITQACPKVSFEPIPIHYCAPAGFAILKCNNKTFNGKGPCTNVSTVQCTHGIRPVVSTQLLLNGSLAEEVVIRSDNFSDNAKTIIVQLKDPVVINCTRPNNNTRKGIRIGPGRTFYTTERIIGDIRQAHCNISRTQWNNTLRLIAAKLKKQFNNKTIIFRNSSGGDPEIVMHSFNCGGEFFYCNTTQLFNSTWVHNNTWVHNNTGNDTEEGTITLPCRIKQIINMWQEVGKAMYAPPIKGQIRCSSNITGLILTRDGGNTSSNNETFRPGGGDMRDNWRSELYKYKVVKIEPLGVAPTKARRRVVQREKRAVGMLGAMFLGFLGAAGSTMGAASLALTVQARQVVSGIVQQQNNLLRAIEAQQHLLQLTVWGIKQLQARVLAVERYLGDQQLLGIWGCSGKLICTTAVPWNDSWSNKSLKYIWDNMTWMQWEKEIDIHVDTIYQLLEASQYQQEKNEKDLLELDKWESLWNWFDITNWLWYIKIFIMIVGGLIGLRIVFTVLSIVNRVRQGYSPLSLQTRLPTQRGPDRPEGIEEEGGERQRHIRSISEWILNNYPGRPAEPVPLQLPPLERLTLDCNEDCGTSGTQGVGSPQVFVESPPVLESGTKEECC
UDP-galactopyranose mutase, sequence (P9WIQ1 whole entry): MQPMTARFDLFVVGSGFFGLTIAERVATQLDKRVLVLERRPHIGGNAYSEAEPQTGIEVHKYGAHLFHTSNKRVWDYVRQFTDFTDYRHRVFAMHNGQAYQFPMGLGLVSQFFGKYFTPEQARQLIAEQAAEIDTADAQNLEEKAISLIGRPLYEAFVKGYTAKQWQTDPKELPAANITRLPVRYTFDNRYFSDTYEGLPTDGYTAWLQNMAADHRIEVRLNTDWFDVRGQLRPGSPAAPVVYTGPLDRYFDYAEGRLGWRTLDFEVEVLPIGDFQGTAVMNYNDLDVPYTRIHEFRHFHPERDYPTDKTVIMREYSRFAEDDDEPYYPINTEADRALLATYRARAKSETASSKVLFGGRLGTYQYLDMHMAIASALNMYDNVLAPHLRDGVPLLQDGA
Nucleotide-binding oligomerization domain-containing protein 1, sequence (Q9Y239 whole entry, the tested form may be a part): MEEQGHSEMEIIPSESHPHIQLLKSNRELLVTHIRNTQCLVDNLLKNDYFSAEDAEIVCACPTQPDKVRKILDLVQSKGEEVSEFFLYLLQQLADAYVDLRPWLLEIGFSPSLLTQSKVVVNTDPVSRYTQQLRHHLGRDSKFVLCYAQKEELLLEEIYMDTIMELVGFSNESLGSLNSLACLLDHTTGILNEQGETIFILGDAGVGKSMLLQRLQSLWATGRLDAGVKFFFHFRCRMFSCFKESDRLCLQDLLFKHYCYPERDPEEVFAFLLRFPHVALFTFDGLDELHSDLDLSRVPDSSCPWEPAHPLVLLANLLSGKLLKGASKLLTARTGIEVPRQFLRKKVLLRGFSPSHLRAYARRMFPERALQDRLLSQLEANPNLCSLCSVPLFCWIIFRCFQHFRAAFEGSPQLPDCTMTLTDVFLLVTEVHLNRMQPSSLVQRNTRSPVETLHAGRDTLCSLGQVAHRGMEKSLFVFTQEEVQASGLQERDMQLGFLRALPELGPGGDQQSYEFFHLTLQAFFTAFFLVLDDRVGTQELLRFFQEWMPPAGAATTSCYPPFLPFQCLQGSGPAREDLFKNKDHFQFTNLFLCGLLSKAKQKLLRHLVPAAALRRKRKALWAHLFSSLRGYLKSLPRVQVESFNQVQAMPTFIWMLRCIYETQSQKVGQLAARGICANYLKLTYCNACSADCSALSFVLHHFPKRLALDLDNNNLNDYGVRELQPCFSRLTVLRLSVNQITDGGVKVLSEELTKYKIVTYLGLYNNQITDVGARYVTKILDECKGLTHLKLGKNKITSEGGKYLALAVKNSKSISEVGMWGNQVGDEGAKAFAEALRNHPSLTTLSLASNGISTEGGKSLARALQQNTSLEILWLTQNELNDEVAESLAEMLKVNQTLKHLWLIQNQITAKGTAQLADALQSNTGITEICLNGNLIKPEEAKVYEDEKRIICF
Cytochrome P450 2C19, sequence (P33261 whole entry): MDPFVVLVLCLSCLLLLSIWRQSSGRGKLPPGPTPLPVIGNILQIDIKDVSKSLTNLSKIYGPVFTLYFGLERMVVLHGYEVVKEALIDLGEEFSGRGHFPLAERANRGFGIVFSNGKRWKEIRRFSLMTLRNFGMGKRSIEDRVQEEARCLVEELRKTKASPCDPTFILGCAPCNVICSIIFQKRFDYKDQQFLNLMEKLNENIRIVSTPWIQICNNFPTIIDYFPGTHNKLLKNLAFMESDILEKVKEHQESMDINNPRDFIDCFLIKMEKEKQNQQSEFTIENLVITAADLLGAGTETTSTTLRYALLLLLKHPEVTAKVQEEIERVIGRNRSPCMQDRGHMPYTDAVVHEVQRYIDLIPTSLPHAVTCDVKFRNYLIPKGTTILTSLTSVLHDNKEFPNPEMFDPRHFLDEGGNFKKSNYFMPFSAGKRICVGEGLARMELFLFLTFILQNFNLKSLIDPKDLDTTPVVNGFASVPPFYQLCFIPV
Tumor necrosis factor, sequence (P01375 whole entry, the tested form may be a part): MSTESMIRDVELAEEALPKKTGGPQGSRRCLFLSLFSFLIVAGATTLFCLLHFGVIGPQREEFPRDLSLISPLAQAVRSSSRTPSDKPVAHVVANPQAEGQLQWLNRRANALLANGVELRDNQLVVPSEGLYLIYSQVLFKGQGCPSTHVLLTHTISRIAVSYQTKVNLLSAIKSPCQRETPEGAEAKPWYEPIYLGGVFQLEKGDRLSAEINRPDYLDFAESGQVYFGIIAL
Bcl-2-like protein 1, sequence (Q07817 whole entry): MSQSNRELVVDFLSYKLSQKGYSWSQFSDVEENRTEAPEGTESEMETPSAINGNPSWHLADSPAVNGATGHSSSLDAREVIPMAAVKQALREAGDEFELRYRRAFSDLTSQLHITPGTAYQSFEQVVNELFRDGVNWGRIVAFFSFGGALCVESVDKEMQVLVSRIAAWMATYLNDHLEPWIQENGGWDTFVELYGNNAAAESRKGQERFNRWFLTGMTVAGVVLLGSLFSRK

## CN1CCN(Cc2ccc(OCc3ccccc3)cc2)CC1
[1]
  IC50: 3.08 µM (active)
[2]
  IC50: 1.8 µM (active)

## CCCCCCNC(=O)C(C#N)c1nc2ccccc2nc1N1CCOCC1 (stereo unspecified)
[3]
  AC50: 70 µM (active)

## COc1ccccc1NC(=O)c1nc[nH]c1C(=O)Nc1ccccc1OC
[4]
  AC50: inconclusive

## COc1cc(NC(=O)NCC2CCN(Cc3ccccc3C)CC2)cc(OC)c1OC
[5]
  EC50: 52.6 µM (active)
[6]
  EC50: 70 µM (active)
[7]
  EC50: 64.7 µM (active)
[8]
  EC50: 73.9 µM (active)

## O=C(O)CCN1C(=O)/C(=C\c2ccc(OCc3ccccc3)c(OCc3ccccc3)c2)SC1=S
[9]
  IC50: 10.2 µM (active)
[10]
  EC50: 18.7 µM (active)

## O=C(Nc1ccc(OC(F)(F)F)cc1)c1ccc(CN2CCc3ccccc3C2)cc1
[11]
  IC50: 24.4 nM (active)
[12]
  IC50: < 39.1 nM (active)
[13]
  IC50: > 20 µM (inactive)

## COC(=O)[C@@]1(Cc2ccc(F)cc2)[C@@H]2[C@@H](CC(=O)[C@H]2CC(=O)C(=O)N2CCCC2)CN1C(=O)c1ccccc1
[14]
  AC50: 15.8 µM (inconclusive)
[15]
  AC50: 39.8 µM (inconclusive)
[16]
  AC50: inconclusive

## Cc1ccc(NC(=O)c2nnn(-c3cc(C)cc(C)c3)c2N)cc1
[17]
  AC50: inconclusive

## Nc1nnc(CC(=O)N/N=C/c2cc([N+](=O)[O-])cc(Br)c2O)s1
[18]
  IC50: 30 µM (active)
[19]
  IC50: 23.1 µM (not active)
[20]
  IC50: > 109 µM (not active)
[21]
  IC50: 2.79 µM (active)
[22]
  IC50: 20.6 µM (active)
[23]
  IC50: > 100 µM (inactive)

## C[C@@H]1CN([C@@H](C)CO)C(=O)c2cccc(NC(=O)Nc3cccc4ccccc34)c2O[C@H]1CN(C)C(=O)Nc1ccc2c(c1)OCO2
[24]
  AC50: 51.5 µM (active)

## CC1CCN(CCCCOc2ccc(Cl)cc2)CC1
[25]
  EC50: > 50 µM (active)
[26]
  AC50: 46.3 µM (active)

Source: ChEMBL document CHEMBL1201862, “PubChem BioAssay data set” (2004)
